Source: paper PMC11720699, “Developing Allosteric Chaperones for GBA1-Associated Disorders—An Integrated Computational and Experimental Approach” (International Journal of Molecular Sciences, 2024)
Positions count from the first letter of the chain named.

Tests used:
[1] = molecular target: T1, human recombinant GCase (Cerezyme) (Homo sapiens, UniProt P04062, R534H); test: Surface plasmon resonance (SPR) binding to immobilized GCase; conditions: pH 7.4; for Chi^2 / Offset: SPR fit; for Dose-response / Kd / Rmax: SPR
T1 construct: The human full-length GCase protein (Cerezyme, wild type, not tagged; Genzyme, Naarden, The Netherlands); purchased Genzyme
T1 sequence (P04062 40-536 R534H): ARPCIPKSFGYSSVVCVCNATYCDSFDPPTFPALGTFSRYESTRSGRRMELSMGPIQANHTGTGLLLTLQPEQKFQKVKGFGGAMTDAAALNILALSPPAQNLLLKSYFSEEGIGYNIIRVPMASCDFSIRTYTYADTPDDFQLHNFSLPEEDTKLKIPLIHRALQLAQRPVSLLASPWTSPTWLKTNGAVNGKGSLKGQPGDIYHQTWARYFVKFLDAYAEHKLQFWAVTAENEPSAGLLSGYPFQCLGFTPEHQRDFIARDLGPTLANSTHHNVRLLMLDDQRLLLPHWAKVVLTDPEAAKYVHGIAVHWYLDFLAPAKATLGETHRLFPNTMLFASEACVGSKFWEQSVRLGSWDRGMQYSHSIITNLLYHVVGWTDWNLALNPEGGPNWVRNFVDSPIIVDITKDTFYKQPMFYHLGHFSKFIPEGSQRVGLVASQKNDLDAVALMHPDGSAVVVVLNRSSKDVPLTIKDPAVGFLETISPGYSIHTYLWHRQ
Method: The surface plasmon resonance (SPR) technique is used to detect changes in the refractive index on the surface of a sensor due to changes in mass. […] Binding to GCase by SPR was confirmed for selected compounds using recombinant human GCase protein at a neutral pH of 7.4 (Figure 4A,B). […] Compounds 2 and 3, along with isofagomine (IFG) as a control, were evaluated in an activity assay using lysates from wild-type fibroblasts (Figure 4C).
All SPR experiments were performed at 20 °C using the Biacore T200 (GE Healthcare, Uppsala, Sweden). SPR detects changes in the refractive index on the sensor surface due to mass changes, which helps measure the interaction between the GCase protein (Cerezyme) and the tested compounds.
The human full-length GCase protein (Cerezyme, wild type, not tagged; Genzyme, Naarden, The Netherlands) was immobilized on an SPR CM5 sensor (29149603, GE Healthcare, Chicago, IL, USA) using standard amino coupling with a high protein concentration of 100 µg/mL. A nine-point, 2-fold serial dilution starting from 180 µM of the compound (from a 10 mM stock solution in DMSO) was tested by SPR at pH 7.4 in a buffer containing 10 mM Hepes, 5 mM EDTA, 150 mM NaCl, 0.01% Tween-20, 0.5 mg/mL CM-Dextran, and 5% DMSO. Reference channels included empty, activated, and deactivated channels on the same SPR sensor. The raw SPR signals from the active channel with immobilized GCase were adjusted by subtracting signals from the reference channel and the running buffer (double referenced) and corrected for any DMSO signal mismatch. Binding affinity values were extracted by fitting the SPR data to a four-parameter logarithmic dose-response equation without constraints using GraphPad Prism version 10.2.3.

lysosomal GCase = molecular target: T2, lysosomal GCase (Homo sapiens, UniProt P04062, L483P); test: In situ lysosomal GCase activity assay (PFB-FDGlu, flow cytometry); assay type: cell-based; conditions: p.L444P biallelic GD fibroblasts, four days
T2 construct: endogenous in cells; host or cells: GD patient fibroblasts, p.L444P/p.L444P
T2 sequence (P04062 40-536 L483P): T1 sequence (P04062 40-536 R534H) with L444P, H495R
Method: To validate the observed chaperoning effect of the compounds, an in situ lysosomal GCase assay was conducted using a fluorescent PFB-FDGlu probe in fibroblasts from GD patients carrying the p.L444P biallelic mutation.
Fibroblasts were seeded into a 12-well plate and treated with compounds for four days. After treatment, the fibroblasts were washed with PBS, and 320 µM PFB-FDGlu in PBS was added for 30 min at 37 °C. The cells were then washed with PBS and detached using trypsin. The trypsinization process was halted by adding cold PBS with 4% FBS. The cells were centrifuged at 1200 rpm for 5 min and washed twice with 200 µL of the previously mentioned buffer. The cell pellet was resuspended in 280 µL of FACS buffer containing DAPI (1:1000 dilution). Flow cytometric analysis was conducted using a Coulter Gallios I flow cytometer (492/516 nm), and the data were analyzed with FlowJo v10.8.1 software.

Row | SMILES | Chi^2 [1] | Offset [1] | Dose-response [1] | Kd [1] | Rmax [1] | effect on lysosomal GCase activity (lysosomal GCase)
1 | CN(C(=O)c1cc(N)cc(Nc2cccc3c2OCO3)n1)c1ccccc1 [Compound 3] | 2.61 RU^2 | −1.406 RU | Yes | 50.7 µM | 22.73 RU | dose-dependent enhancement of lysosomal GCase activity
2 | CN(Cc1ccccc1)Cc1nc(N)nc(Nc2cccc(Br)c2)n1 [Compound 2] | 1.28 RU^2 | 1.959 RU | Yes | 29.8 µM | 35.57 RU | inhibitory effect that intensified with increasing concentrations
